Results as given in article PMC3249837 (ACS chemical neuroscience, 2011).

Test system: PS1ΔE9
Assay type: binding
Settings: competitor at 10 µM, probes at 200 nM

## CC(C)CC[C@H](c1ccc(Cl)cc1)N1CC[C@@H](CC(=O)O)C[C@H]1c1ccc(C(F)(F)F)cc1 [Compound 1]
  Competition of probe 4 and 5 labeling of PS1ΔE9 proteoliposomes: blocked
